{"source": "patent US8785416B2", "about": "“Sulphated disaccharides for the treatment of neurodegenerative and/or neurovascular diseases” (Bioiberica, S.A., priority 2009, dated 2014)", "key": {"[1]": {"tested_on": "mice (photothrombotic stroke model)", "assay": "Experimental photothrombotic stroke model, cortical infarction volume", "format": "in vivo, mouse", "conditions": "10 mg/kg i.p.", "description": "Neuronal death occurs during brain ischemia or stroke; therefore a medicament with a neuroprotective profile can have a therapeutic potential in patients who have suffered from a cerebral infarction or stroke. To explore if the compounds of formula (I) can offer neuroprotection in vivo, the experimental photothrombotic stroke model was used. In the photothrombosis model a focal cerebral infarction is induced in the area of the cortex illuminated by means of a cold light source in mice previously treated with the Rose Bengal stain; this stain is photosensitive and produces free radicals when it is stimulated with light, causing lesions in the surrounding vascular endothelium, which causes platelet aggregation and the formation of thrombi in the microvessels of the cerebral cortex (Non-invasive induction of focal cerebral ischemia in mice by photothrombosis of cortical microvessels: characterization of inflammatory responses, M. Schroeter et al., J Neurosci Methods. 117(1), 43-49. (2002); Melatonin reduces infarction volume in a photothrombotic stroke model in the wild-type but not cyclooxygenase-1-gene knockout mice, L Y. Zhou et al., J Pineal Res. 41(2), 150-156. (2006)).\nAdult male Swiss breed mice from Harlan laboratories (Barcelona), with a weight of about 30 g, were used. Once anaesthetised with isoflurane, the mice were placed in a stereotaxic frame, maintaining their rectal temperature at 37±0.5° C. during the entire procedure. Subsequently, the cranium was exposed by means of a dorsomedial incision in the skin and the periosteum was removed. By means of the use of a micromanipulator, a fibre-optic cable was placed to emit a beam of light of 1.9 mm in diameter and 3000° K, connected to a cold light source (Zeiss KL 1500), in 2.0 mm posterior and 3.0 mm lateral to Bregma on the right side. According to the mouse brain atlas (Franklin and Paxinos, 1986), the sensitive-motor cortex, the putamen caudate and the hippocampus are right below this stereotaxic position. Then, the mice were injected with 1 mg of the Rose Bengal photosensitive probe and the brain was illuminated through the intact cranium for 30 minutes. Finally, the skin was sutured and the animals were left in a cage until their recovery under observation.\nThe animals were sacrificed by decapitation 72 hours after the ischemia. […]\nTo quantify the cortical cerebral infarction volume, the sections stained with TTC were scanned on both their rostral and caudal part and by means of the image analysis programme ImageJ 1.41 (National Institutes of Health, Bethesda, Md., USA) the area of the ipsi-, contralateral cortex and the cerebral infarction of each of the sections scanned, both in the caudal and rostral part, was quantified. Subsequently, the cerebral infarction volume was calculated. […]"}, "[2]": {"tested_on": "SH-SY5Y human neuroblastoma cells", "assay": "Neuroprotection against cell death induced by rotenone plus oligomycin-A (oxidative stress), LDH release", "format": "cell-based", "description": "An oxidative stress model consists of blocking mitochondrial respiratory chain complexes I and V by means of the combination of rotenone plus oligomycin-A, respectively. As a result of the interruption of the mitochondrial respiratory chain, the cell is unable to continue producing ATP, and the free radicals are generated exceeding the capacity of the cell to neutralize them, and as a result, cell death occurs.\nSH-SY5Y human neuroblastoma cells were cultured in a monolayer in 75 cm^2 flasks with a vented stopper. The culture medium used was Dulbecco's Modified Eagle's Medium (DMEM) with a high glucose content ([…]) and supplemented with 10% foetal bovine serum, 2 mM L-Glutamine, 50 IU/mL penicillin and 50 μg/mL streptomycin.\nThe cell cultures were maintained in an incubator at 37° C. in a humid environment, with 5% CO2 and 95% air. The culture medium was changed twice a week, performing 1:4 passages when the cells reached 70-80% confluence. To perform the passages, the cells were detached by means of their treatment with trypsin-EDTA.\nFor the cell viability assays, the cells were seeded in sterile 48-well plates at a density of 80,000 cells/well. The experiments were performed 24-48 hours after their seeding.\nTo evaluate the neuroprotective effect of the compounds, the SH-SY5Y cells were preincubated for 24 hours with the compound under study, and subsequently incubated for 24 hours with the compound under study in the presence of the toxic substances (a combination of 10 μM rotenone and 1 μM oligomycin-A); at the end of this period the cell viability was evaluated by quantifying the release of the LDH enzyme.\nThe assessment of this enzyme was performed by means of a commercial kit (Cytotoxicity detection kit-LDH; Roche) following the instructions of the company. The samples were colorimetrically analyzed in a plate reader (Labsystems iEMS Reader MF), using the suitable filter at 490-600 nm and obtaining the absorbance values.\nThe % of cell death was defined as the % of LDH released into the extracellular medium with respect to the total (sum of intra- and extracellular LDH).\nCompounds Ic and Ib were studied at four concentrations (0.001, 0.003, 0.01 and 0.03 μM), chondroitin sulphate (supplied by Bioibérica, S.A.) was assayed at two concentrations (10 and 60 μM) and trolox (Sigma Aldrich) was assayed at two concentrations (30 and 300 μM). The experiment also included the baseline (SH-SY5Y cells in the absence of compound and of toxic stimulus) and the control (SH-SY5Y cells cultured in the absence of compound and in the presence of the toxic stimulus rotenone plus oligomycin)."}}}
{"substance": "methyl 2-acetamido-2-deoxy-3-O-(β-D-glucopyranosyluronic acid)-4,6-di-O-sulpho-α-D-glucopyranoside, trisodium salt [compound Ic]", "values": [{"measurement": "cortical infarction volume", "setting": "[1]; 24 h and 1 h before ischemia and twice a day after, 72 hours, saline 6.1±2.18%, mean and standard deviation", "result": "2.8±1.95", "unit": "%"}, {"measurement": "protection (reduction of cortical infarction volume)", "setting": "[1]; p<0.001 vs saline", "result": 53, "unit": "%"}, {"measurement": "maximum statistically significant protection against cell death (% of released LDH) induced by rotenone and oligomycin", "setting": "[2]; 0.03 μM, 24 h preincubation + 24 h with 10 μM rotenone and 1 μM oligomycin-A", "result": 47, "unit": "%"}, {"measurement": "protective effect compared with chondroitin sulphate and trolox", "setting": "[2]; Ic, Ib at 0.001-0.03 μM vs chondroitin sulphate 10 and 60 μM, trolox 30 and 300 μM", "result": "more effective than chondroitin sulphate and than trolox"}]}
